Source: patent US20100137313A1 (ASTRAZENECA AB, priority 2008, published 2010)

Target: S. pneumoniae Topoisomerase IV ATPase (ParE) (Streptococcus pneumoniae serotype 4, UniProt Q59961)
Assay: S. pneumoniae Topoisomerase IV ATPase inhibition
Assay type: biochemical
Conditions: values marked * are an average of two or more data points, read-out: % Inh (13 μM) of S. pneumoniae Topoisomerase IV ATPase
Outline: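 S. pneumoniae ParE (1.25 nM) ATPase with 160 μM ATP and 5 μg/ml sheared DNA in pH 8.0 Tris, Mg2+, DTT, Brij-35; phosphate detected by malachite green/molybdate at 650 nm. Normalised to 2% DMSO (0%) and 20 μM EDTA (100%); IC50 from 10 concentrations.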

Chain of S. pneumoniae Topoisomerase IV ATPase (ParE) (Q59961 whole entry): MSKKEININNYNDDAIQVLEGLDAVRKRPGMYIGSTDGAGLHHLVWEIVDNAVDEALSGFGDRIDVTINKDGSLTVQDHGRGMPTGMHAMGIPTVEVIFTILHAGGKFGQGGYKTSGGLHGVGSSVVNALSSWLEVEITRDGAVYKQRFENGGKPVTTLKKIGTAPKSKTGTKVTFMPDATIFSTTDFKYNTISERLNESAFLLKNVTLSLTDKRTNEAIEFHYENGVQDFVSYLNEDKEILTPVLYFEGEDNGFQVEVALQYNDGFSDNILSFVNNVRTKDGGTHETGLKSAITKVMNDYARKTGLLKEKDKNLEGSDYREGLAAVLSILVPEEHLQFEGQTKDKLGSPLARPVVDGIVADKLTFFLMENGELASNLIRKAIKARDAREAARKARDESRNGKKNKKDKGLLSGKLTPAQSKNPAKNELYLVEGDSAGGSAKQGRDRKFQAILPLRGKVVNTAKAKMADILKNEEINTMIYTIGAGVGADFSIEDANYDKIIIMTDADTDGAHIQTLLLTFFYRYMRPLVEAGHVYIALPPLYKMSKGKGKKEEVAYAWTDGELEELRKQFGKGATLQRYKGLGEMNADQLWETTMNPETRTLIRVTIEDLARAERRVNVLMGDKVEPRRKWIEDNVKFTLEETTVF

Structure (SMILES) | inhibition at 13 µM
CC(Oc1ncc(-c2cnc(Nc3ccc(F)c(Cl)c3)nc2-n2ccc(C(F)(F)F)n2)cc1C(=O)O)c1ccncc1 (stereo not shown) [Example 793, 5-{2-[(3-chloro-4-fluorophenyl)amino]-4-[3-(trifluoromethyl)-1H-pyrazol-1-yl]pyrimidin-5-yl}-2-[1-(pyridin-4-yl)ethoxy]pyridine-3-carboxylic acid] | 100%
Cc1cc(C(F)(F)F)nn1-c1nc(Nc2ccc(F)c(Cl)c2)ncc1-c1cnc(OCCn2ccnc2)c(C(=O)O)c1 [Example 795, 5-{2-[(3-chloro-4-fluorophenyl)amino]-4-[5-methyl-3-(trifluoromethyl)-1H-pyrazol-1-yl]pyrimidin-5-yl}-2-[2-(1H-imidazol-1-yl)ethoxy]pyridine-3-carboxylic acid] | 100%
O=C(O)c1cc(-c2cnc(Nc3ccc(F)c(Cl)c3)nc2-n2ccc(C(F)(F)F)n2)cnc1OCCn1ccnc1 [Example 797, 5-{2-[(3-chloro-4-fluorophenyl)amino]-4-[3-(trifluoromethyl)-1H-pyrazol-1-yl]pyrimidin-5-yl}-2-[2-(1H-imidazol-1-yl)ethoxy]pyridine-3-carboxylic acid] | 100%
COc1ncc(-c2cnc(Nc3cc(C)cc(Cl)c3)nc2-n2ccc(C(F)(F)F)n2)cc1C(=O)O [Example 799, 5-{2-[(3-chloro-5-methylphenyl)amino]-4-[3-(trifluoromethyl)-1H-pyrazol-1-yl]pyrimidin-5-yl}-2-methoxypyridine-3-carboxylic acid] | 100%
COc1ncc(-c2cnc(Nc3cc(C)cc(Cl)c3)nc2-n2ccc(C(F)(F)F)n2)cc1C(=O)NS(C)(=O)=O [Example 800, 5-{2-[(3-chloro-5-methylphenyl)amino]-4-[3-(trifluoromethyl)-1H-pyrazol-1-yl]pyrimidin-5-yl}-2-methoxy-N-(methylsulfonyl)pyridine-3-carboxamide] | 99%
COc1ncc(-c2cnc(Nc3cc(C)cc(Cl)c3)nc2-n2nc(C(F)(F)F)cc2C)cc1C(=O)O [Example 802, 5-{2-[(3-chloro-5-methylphenyl)amino]-4-[5-methyl-3-(trifluoromethyl)-1H-pyrazol-1-yl]pyrimidin-5-yl}-2-methoxypyridine-3-carboxylic acid] | 100%
COc1ncc(-c2cnc(Nc3cc(C)cc(Cl)c3)nc2-n2nc(C(F)(F)F)cc2C)cc1C(=O)NS(C)(=O)=O [Example 803, 5-{2-[(3-chloro-5-methylphenyl)amino]-4-[5-methyl-3-(trifluoromethyl)-1H-pyrazol-1-yl]pyrimidin-5-yl}-2-methoxy-N-(methylsulfonyl)pyridine-3-carboxamide] | 100%
COc1cc(Nc2ncc(-c3cnc(OC)c(-c4n[nH]c(=O)o4)c3)c(-n3nc(C(F)(F)F)cc3C)n2)cc(OC)c1 [Example 805, 5-(5-{2-[(3,5-dimethoxyphenyl)amino]-4-[5-methyl-3-(trifluoromethyl)-1H-pyrazol-1-yl]pyrimidin-5-yl}-2-methoxypyridin-3-yl)-1,3,4-oxadiazol-2(3H)-one] | 100%
COc1cc(Nc2ncc(-c3cnc(OC)c(-c4n[nH]c(=O)o4)c3)c(-n3ccc(C(F)(F)F)n3)n2)cc(OC)c1 [Example 807, 5-(5-{2-[(3,5-dimethoxyphenyl)amino]-4-[3-(trifluoromethyl)-1H-pyrazol-1-yl]pyrimidin-5-yl}-2-methoxypyridin-3-yl)-1,3,4-oxadiazol-2(3H)-one] | 100%
CNC(=O)c1cc(-c2cnc(Nc3cc(OC)cc(OC)c3)nc2-n2nc(C(F)(F)F)cc2C)cnc1OC [Example 808, 5-{2-[(3,5-dimethoxyphenyl)amino]-4-[5-methyl-3-(trifluoromethyl)-1H-pyrazol-1-yl]pyrimidin-5-yl}-2-methoxy-N-methylpyridine-3-carboxamide] | 100%
CNC(=O)c1cc(-c2cnc(Nc3cc(OC)cc(OC)c3)nc2-n2ccc(C(F)(F)F)n2)cnc1OC [Example 809, 5-{2-[(3,5-dimethoxyphenyl)amino]-4-[3-(trifluoromethyl)-1H-pyrazol-1-yl]pyrimidin-5-yl}-2-methoxy-N-methylpyridine-3-carboxamide] | 100%
CONC(=O)c1cc(-c2cnc(Nc3cc(OC)cc(OC)c3)nc2-n2nc(C(F)(F)F)cc2C)cnc1OC [Example 810, 5-{2-[(3,5-dimethoxyphenyl)amino]-4-[5-methyl-3-(trifluoromethyl)-1H-pyrazol-1-yl]pyrimidin-5-yl}-N,2-dimethoxypyridine-3-carboxamide] | 100%
CONC(=O)c1cc(-c2cnc(Nc3cc(OC)cc(OC)c3)nc2-n2ccc(C(F)(F)F)n2)cnc1OC [Example 811, 5-{2-[(3,5-dimethoxyphenyl)amino]-4-[3-(trifluoromethyl)-1H-pyrazol-1-yl]pyrimidin-5-yl}-N,2-dimethoxypyridine-3-carboxamide] | 100%
COc1cc(Nc2ncc(-c3cnc(OC)c(C(=O)NCCS(C)(=O)=O)c3)c(-n3nc(C(F)(F)F)cc3C)n2)cc(OC)c1 [Example 812, 5-{2-[(3,5-dimethoxyphenyl)amino]-4-[5-methyl-3-(trifluoromethyl)-1H-pyrazol-1-yl]pyrimidin-5-yl}-2-methoxy-N-[2-(methylsulfonyl)ethyl]pyridine-3-carboxamide] | 100%
COc1cc(Nc2ncc(-c3cnc(OC)c(C(=O)NCCS(C)(=O)=O)c3)c(-n3ccc(C(F)(F)F)n3)n2)cc(OC)c1 [Example 813, 5-{2-[(3,5-dimethoxyphenyl)amino]-4-[3-(trifluoromethyl)-1H-pyrazol-1-yl]pyrimidin-5-yl}-2-methoxy-N-[2-(methylsulfonyl)ethyl]pyridine-3-carboxamide] | 100%
CCS(=O)(=O)NC(=O)c1cc(-c2cnc(Nc3cc(OC)cc(OC)c3)nc2-n2ccc(C(F)(F)F)n2)cnc1OC [Example 814, 5-{2-[(3,5-dimethoxyphenyl)amino]-4-[3-(trifluoromethyl)-1H-pyrazol-1-yl]pyrimidin-5-yl}-N-(ethylsulfonyl)-2-methoxypyridine-3-carboxamide] | 100%
CCS(=O)(=O)NC(=O)c1cc(-c2cnc(Nc3cc(OC)cc(OC)c3)nc2-n2nc(C(F)(F)F)cc2C)cnc1OC [Example 815, 5-{2-[(3,5-dimethoxyphenyl)amino]-4-[5-methyl-3-(trifluoromethyl)-1H-pyrazol-1-yl]pyrimidin-5-yl}-N-(ethylsulfonyl)-2-methoxypyridine-3-carboxamide] | 100%
CCCS(=O)(=O)NC(=O)c1cc(-c2cnc(Nc3cc(OC)cc(OC)c3)nc2-n2ccc(C(F)(F)F)n2)cnc1OC [Example 816, 5-{2-[(3,5-dimethoxyphenyl)amino]-4-[3-(trifluoromethyl)-1H-pyrazol-1-yl]pyrimidin-5-yl}-2-methoxy-N-(propylsulfonyl)pyridine-3-carboxamide] | 100%
CCCS(=O)(=O)NC(=O)c1cc(-c2cnc(Nc3cc(OC)cc(OC)c3)nc2-n2nc(C(F)(F)F)cc2C)cnc1OC [Example 817, 5-{2-[(3,5-dimethoxyphenyl)amino]-4-[5-methyl-3-(trifluoromethyl)-1H-pyrazol-1-yl]pyrimidin-5-yl}-2-methoxy-N-(propylsulfonyl)pyridine-3-carboxamide] | 100%
